The results in this text go back to patent US4400534A, “Analgesic and anti-inflammatory agents” (Sankyo Company, Limited, priority 1980, dated 1983).

In test [1] the target is T1, microsome prostaglandin-biosynthesis enzyme (Bos taurus, UniProt O62664).
T1 construct: microsome prostaglandin-biosynthesis enzyme (1mg/ml) fractionated from bovine seminal vesicles; from tissue; host or cells: bovine seminal vesicles (microsomes)
T1 sequence (O62664 25-600): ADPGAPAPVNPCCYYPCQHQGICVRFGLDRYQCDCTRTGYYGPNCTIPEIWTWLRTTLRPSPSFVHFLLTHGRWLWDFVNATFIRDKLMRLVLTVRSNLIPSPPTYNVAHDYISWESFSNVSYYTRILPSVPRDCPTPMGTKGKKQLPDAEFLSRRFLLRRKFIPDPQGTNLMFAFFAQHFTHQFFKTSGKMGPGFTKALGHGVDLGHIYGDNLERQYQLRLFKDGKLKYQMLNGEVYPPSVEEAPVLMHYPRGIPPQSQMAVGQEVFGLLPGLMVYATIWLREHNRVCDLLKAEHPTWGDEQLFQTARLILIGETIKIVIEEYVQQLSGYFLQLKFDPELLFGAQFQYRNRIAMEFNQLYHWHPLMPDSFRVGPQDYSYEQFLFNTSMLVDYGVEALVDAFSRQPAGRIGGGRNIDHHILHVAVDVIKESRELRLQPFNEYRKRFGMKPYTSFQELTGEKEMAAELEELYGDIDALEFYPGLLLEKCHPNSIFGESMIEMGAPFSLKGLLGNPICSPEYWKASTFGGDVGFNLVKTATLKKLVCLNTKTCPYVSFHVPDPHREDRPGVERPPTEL
Kind of test: Inhibition of PG-biosynthesis enzyme activity, bovine seminal vesicle microsome test. Type of test: biochemical. The note with it: for IC50: bovine seminal vesicle microsome 1mg/ml, 14C-arachidonic acid 10 μM, pH 7.6, 30° C., 10 minutes, prostaglandin E2 measured, read-out: Inhibition of PG-biosynthesis enzyme activity, Bovine seminal vesicle microsome I50. How it is done:
Microsome tests were conducted according to the methods of E Takeguchi, E Kohno, C J Sih: Biochemistry 10, 2372 (1971), "Preparation of bovine seminal vesicle" and of R J Flower, H S Cheung, D W Cushman: Prostaglandins 4, 325 (1973), "Pharmacological action system."
The compounds under test were added to a system comprising microsome prostaglandin-biosynthesis enzyme (1mg/ml) fractionated from bovine seminal vesicles, glutathione (2 mM), epinephrine (1 mM) and trisaminomethane-hydrochloric acid buffer solution pH 7.6 (0.1 M). The mixture was left to stand at 30° C. for 5 minutes and commercially available ^14 C-arachidonic acid (10 μM, 50-60 nCi) was added. The resultant solution was maintained at 30° C. for 10 minutes and reaction then stopped by addition of 0.1 N hydrochloric acid. After extraction of the reaction mixture, the extract was separated by thin layer chromatography on silica gel to give the prostaglandin which was produced. The main product, prostaglandin E2, was measured using a liquid scintilation counter in accordance with the method of L Levine et al: Journal of Biological Chemistry (246, 6782 (1971). The inhibitory activities were assayed by the radioactivity ratio of the sample to a blank.

For test [2], the system named is prostaglandin-biosynthesis in 3T6 cells. Kind of test: Inhibition of prostaglandin-biosynthesis in cultured cells (3T6 cells from mouse fibroblasts). It counts as cell-based. The note with it: for IC50: Mus musculus, Fibroblast, 3T6 cells, 2 hours contact, then arachidonic acid 5 μg/ml, 1 hour, prostaglandin E2 by radioimmunoassay, read-out: Inhibition of PG-biosynthesis enzyme activity, Culture cells I50. How it is done: 3T6 cells from mouse fibroblasts were used as the cultured cells.
About six hundred thousand 3T6 cells were cultured in a plastics Petri dish (35 mm inner diameter) at 37° C. for 48 hours using a minimum-requirement medium, Darbecco (Trade Mark). After culturing, the cells were separated, washed, and then contacted with the same medium but containing the compound under test. After contacting for 2 hours, the medium was separated off and the cells washed. The medium containing 5 μg/ml of arachidonic acid and the test compound were added. Culturing was allowed to continue for 1 hour, and then the concentration of the prostaglandin E2 in the medium was assayed by radioimmunoassay.

As to `C[C@H](C(=O)O)c1ccc(CC2CCCC2O)cc1` (stereo partly drawn) [I, (2S)-2-[4-(2-hydroxycyclopentan-1-ylmethyl)phenyl]propionic acid], in test [1], the IC50 stood at 72 µM.

For the compound `C[C@H](C(=O)O)c1ccc(CC2CCCC2O)cc1` (stereo partly shown) [II + III], the IC50 in test [1] worked out at 13 µM.

Turning to `C[C@H](C(=O)O)c1ccc(C[C@H]2CCC[C@@H]2O)cc1` [II, (2S)-2-{4-[(1R,2S)-2-hydroxycyclopentan-1-ylmethyl]phenyl}propionic acid], the IC50 in test [2] came out at 0.25 µM. For the same compound, the “activity compared to indomethacin (in words)” value in test [2] (cultured cells test, called in vivo) is reported as “better activity in the compound (II) compared to indomethacin”. Moreover, in test [1], the “inhibition of prostaglandin-biosynthesis enzyme activity (in words)” value is listed as “more active than the compound (I)” and the IC50 is 9 µM.

As to `COc1ccc2c(c1)c(CC(=O)O)c(C)n2C(=O)c1ccc(Cl)cc1` [IM, indomethacin, reference compound], the IC50 in test [2] worked out at 0.34 µM.
